Experimental data published in ChEMBL document CHEMBL3784940 (Bioorg Med Chem Lett, 2016).
Blank lines part the entries; values can stand above or below the compound they belong to. Activity calls are given as the source filed them. The calls are words filed in the database; no cut-off is given here.

Key:
[1] = Inhibition of Hh signaling pathway in Sufu deficient MEF cells assessed as downregulation of Gli1 mRNA expression at 10 uM after 24 hrs by qRT-PCR analysis; assay type: cell-based; conditions: Mus musculus
[2] = Inhibition of Hh signaling pathway in mouse TM3 cells assessed as downregulation of Gli1 gene expression after 48 hrs by luciferase reporter gene assay; assay type: cell-based; conditions: TM3, 48 h
[3] = Cytotoxicity against mouse TM3 cells assessed as cell viability after 48 hrs by Cell Titer Glo assay; assay type: cell-based; conditions: read-out: LD50
[4] = Inhibition of Hh signaling pathway in Sufu deficient MEF cells assessed as downregulation of Ptch1 mRNA expression at 10 uM after 24 hrs by qRT-PCR analysis; assay type: cell-based; conditions: Mus musculus
[5] = biological target: Protein smoothened (Homo sapiens) (UniProt Q99835); test: Displacement of BODIPY-cyc from SMO receptor (unknown origin) transfected in HEK293T cells at 10 uM after 16 hrs by laser-scanning confocal microscopic analysis; assay type: cell-based; conditions: HEK-293T
Protein smoothened (Homo sapiens), sequence (Q99835 whole entry): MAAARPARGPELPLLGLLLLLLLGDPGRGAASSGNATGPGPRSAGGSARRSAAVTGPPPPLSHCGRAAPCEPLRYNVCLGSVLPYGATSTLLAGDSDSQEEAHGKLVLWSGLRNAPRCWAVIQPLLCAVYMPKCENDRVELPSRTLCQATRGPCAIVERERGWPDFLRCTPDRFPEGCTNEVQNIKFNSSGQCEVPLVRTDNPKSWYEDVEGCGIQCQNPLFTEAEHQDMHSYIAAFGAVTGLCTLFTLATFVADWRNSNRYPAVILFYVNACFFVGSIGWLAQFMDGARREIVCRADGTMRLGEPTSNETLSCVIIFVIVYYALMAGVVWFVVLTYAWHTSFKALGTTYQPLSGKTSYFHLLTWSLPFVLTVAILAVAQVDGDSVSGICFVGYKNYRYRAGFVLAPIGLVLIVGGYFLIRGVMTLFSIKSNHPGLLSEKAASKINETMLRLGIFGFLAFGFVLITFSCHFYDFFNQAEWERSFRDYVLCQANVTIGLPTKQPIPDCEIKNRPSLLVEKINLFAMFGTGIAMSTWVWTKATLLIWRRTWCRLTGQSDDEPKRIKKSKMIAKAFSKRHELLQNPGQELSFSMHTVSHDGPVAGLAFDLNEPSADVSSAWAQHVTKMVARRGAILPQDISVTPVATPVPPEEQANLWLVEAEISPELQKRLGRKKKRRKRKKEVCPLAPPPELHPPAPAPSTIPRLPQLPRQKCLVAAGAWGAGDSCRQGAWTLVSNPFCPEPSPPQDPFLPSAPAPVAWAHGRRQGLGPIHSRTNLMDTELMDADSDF

[6] = Inhibition of luciferase (unknown origin) expressed in BMP-responsive element stable reporter cells; assay type: cell-based
[7] = biological target: Protein smoothened (Homo sapiens) (UniProt Q99835); test: Displacement of BODIPY-cyc from SMO receptor (unknown origin) transfected in HEK293T cells at 1 uM after 16 hrs by laser-scanning confocal microscopic analysis; assay type: cell-based; conditions: HEK-293T
[8] = Inhibition of Hh signaling pathway in Sufu deficient MEF cells assessed as downregulation of Gli1 mRNA expression at 0.1 uM after 24 hrs by qRT-PCR analysis; assay type: cell-based; conditions: Mus musculus
[9] = Inhibition of Hh signaling pathway in Sufu deficient MEF cells assessed as downregulation of Ptch1 mRNA expression at 0.1 uM after 24 hrs by qRT-PCR analysis; assay type: cell-based; conditions: Mus musculus
[10] = biological target: 3',5'-cyclic-AMP phosphodiesterase 4D (Homo sapiens, UniProt Q08499); test: Inhibition of PDE4D (unknown origin) preincubated for 5 mins followed by cAMP addition measured after 15 mins by PDE-Glo phosphodiesterase assay
3',5'-cyclic-AMP phosphodiesterase 4D, sequence (Q08499 whole entry): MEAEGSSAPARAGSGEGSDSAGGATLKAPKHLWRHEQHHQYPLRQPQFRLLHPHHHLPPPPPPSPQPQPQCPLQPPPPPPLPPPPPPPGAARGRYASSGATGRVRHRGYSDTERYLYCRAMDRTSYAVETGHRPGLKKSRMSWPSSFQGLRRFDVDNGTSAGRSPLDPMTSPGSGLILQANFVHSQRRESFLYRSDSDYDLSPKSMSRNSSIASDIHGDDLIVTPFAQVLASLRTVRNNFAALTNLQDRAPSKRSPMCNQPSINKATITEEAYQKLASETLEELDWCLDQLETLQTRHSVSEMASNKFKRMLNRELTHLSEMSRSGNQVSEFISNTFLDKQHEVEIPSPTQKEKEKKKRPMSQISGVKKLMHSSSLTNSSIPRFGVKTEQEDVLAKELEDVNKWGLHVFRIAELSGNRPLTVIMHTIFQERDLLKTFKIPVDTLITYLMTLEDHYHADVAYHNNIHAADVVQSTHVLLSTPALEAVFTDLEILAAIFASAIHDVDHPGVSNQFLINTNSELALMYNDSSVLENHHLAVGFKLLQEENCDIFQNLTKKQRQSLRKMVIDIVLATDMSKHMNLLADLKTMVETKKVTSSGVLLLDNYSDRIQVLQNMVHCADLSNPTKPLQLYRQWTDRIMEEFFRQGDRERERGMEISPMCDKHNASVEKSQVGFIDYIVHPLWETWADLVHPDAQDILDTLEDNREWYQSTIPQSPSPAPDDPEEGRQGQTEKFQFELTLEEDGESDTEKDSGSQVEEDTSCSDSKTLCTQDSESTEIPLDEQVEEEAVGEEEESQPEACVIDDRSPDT

[11] = biological target: Protein smoothened (Homo sapiens) (UniProt Q99835); test: Displacement of BODIPY-cyc from SMO receptor (unknown origin) transfected in HEK293T cells at 200 nM after 16 hrs by laser-scanning confocal microscopic analysis; assay type: cell-based; conditions: HEK-293T
[12] = Inhibition of Hh signaling pathway in Shh-LIGHT2 incorporated mouse NIH 3T3 cells assessed as downregulation of Gli1 gene expression by luciferase reporter gene assay; assay type: cell-based; conditions: NIH3T3

Compound: O=C(CSc1nc2ccccc2c(=O)n1C1CC1)c1cccs1
- inhibition [1]: 10.3%
- EC50 ([2]; read-out: EC50): 0.685 µM
- CC50 at 48 h [3]: > 50 µM
- inhibition [4]: 9.9%
- inhibition [5]: inactive
- inhibition [6]: inactive

Compound: C=C(C)Cn1c(SCC(=O)c2cccs2)nc2sccc2c1=O
- EC50 ([2]; read-out: EC50): 0.931 µM
- CC50 at 48 h [3]: > 50 µM

Compound: O=C(CSc1nc2sccc2c(=O)n1C1CC1)c1ccccc1
- inhibition [1]: 13.6%
- EC50 ([2]; read-out: EC50): 0.082 µM
- CC50 at 48 h [3]: > 50 µM
- inhibition [4]: -0.3%
- inhibition [6]: inactive
- inhibition [7]: inactive

Compound: CS(=O)(=O)c1ccc(C(=O)Nc2ccc(Cl)c(-c3ccccn3)c2)c(Cl)c1 [VISMODEGIB]
- EC50 ([2]; read-out: EC50): 0.013 µM
- CC50 at 48 h [3]: > 50 µM

Compound: C=C(C)Cn1c(SCC(=O)c2ccncc2)nc2sc3c(c2c1=O)CCCC3
- EC50 ([2]; read-out: EC50): 19.8 µM
- CC50 at 48 h [3]: > 50 µM

Compound: C=C(C)Cn1c(SCC(=O)N2CCOCC2)nc2sc3c(c2c1=O)CCCC3
- EC50 ([2]; read-out: EC50): > 20 µM
- CC50 at 48 h [3]: > 50 µM

Compound: O=C(CSc1nc2sc3c(c2c(=O)n1CC1CC1)CCCC3)c1cccs1
- EC50 ([2]; read-out: EC50): 2.07 µM
- CC50 at 48 h [3]: > 50 µM

Compound: C=C(C)Cn1c(SCC(=O)c2ccccn2)nc2sc3c(c2c1=O)CCCC3
- EC50 ([2]; read-out: EC50): > 20 µM
- CC50 at 48 h [3]: > 50 µM

Compound: C=C(C)Cn1c(SCC(=O)c2cccs2)nc2sc3c(c2c1=O)CCOC3
- EC50 ([2]; read-out: EC50): > 20 µM
- CC50 at 48 h [3]: > 50 µM

Compound: O=C(CSc1nc2sc3c(c2c(=O)n1CC1CCC1)CCCC3)c1cccs1
- EC50 ([2]; read-out: EC50): 1.99 µM
- CC50 at 48 h [3]: 45.6 µM

Compound: C=C(C)Cn1c(SCC(=O)c2cccs2)nc2ccccc2c1=O
- EC50 ([2]; read-out: EC50): > 20 µM
- CC50 at 48 h [3]: > 50 µM

Compound: Cc1c(C(=O)Nc2ccc(N3C[C@@H](C)O[C@@H](C)C3)nc2)cccc1-c1ccc(OC(F)(F)F)cc1 [SONIDEGIB]
- EC50 ([2]; read-out: EC50): 0.0012 µM
- CC50 at 48 h [3]: > 50 µM
- inhibition [8]: 5.8%
- inhibition [9]: -0.2%

Compound: O=C(CNc1nc2sccc2c(=O)n1C1CC1)c1ccccc1
- EC50 ([2]; read-out: EC50): > 20 µM
- CC50 at 48 h [3]: > 50 µM

Compound: O=C(CSc1nc2sc3c(c2c(=O)n1-c1ccccc1)CCCC3)c1cccs1
- EC50 ([2]; read-out: EC50): 8.25 µM
- CC50 at 48 h [3]: > 50 µM

Compound: CCCn1c(SCC(=O)c2cccs2)nc2sc3c(c2c1=O)CCCC3
- inhibition [1]: 44.9%
- EC50 ([2]; read-out: EC50): 1.3 µM
- CC50 at 48 h [3]: > 50 µM
- inhibition [4]: 39.9%
- IC50 [10]: 0.486 µM

Compound: O=C(CSc1nc2sccc2c(=O)n1C1CC1)c1cccs1
- inhibition [1]: 5.5%
- EC50 ([2]; read-out: EC50): 0.933 µM
- CC50 at 48 h [3]: > 50 µM
- inhibition [4]: -3.3%
- inhibition [5]: inactive
- inhibition [6]: inactive

Compound: O=C(COc1nc2sccc2c(=O)n1C1CC1)c1ccccc1
- EC50 ([2]; read-out: EC50): > 20 µM
- CC50 at 48 h [3]: > 50 µM

Compound: C=C(C)Cn1c(SCC(=O)c2cccs2)nc2sc3c(c2c1=O)CCSC3
- EC50 ([2]; read-out: EC50): 4.57 µM
- CC50 at 48 h [3]: > 50 µM

Compound: O=C(CSc1nc2ccccc2c(=O)n1C1CC1)c1ccccc1
- EC50 ([2]; read-out: EC50): 1.16 µM
- CC50 at 48 h [3]: > 50 µM

Compound: C=C(C)Cn1c(SCC(=O)c2cccs2)nc2sc3c(c2c1=O)CCNC3
- EC50 ([2]; read-out: EC50): 6.4 µM
- CC50 at 48 h [3]: 20.1 µM

Compound: O=C(CSc1nc2sc3c(c2c(=O)n1C1CC1)CCCC3)c1cccs1
- inhibition [1]: 26.8%
- EC50 ([2]; read-out: EC50): 1.89 µM
- CC50 at 48 h [3]: > 50 µM
- inhibition [4]: 26.5%

- inhibition [11]: Active
Compound: CC1=C2C[C@H]3[C@@H](CC=C4CC(=O)CC[C@@]43C)[C@@H]2CCC12OC1C[C@H](C)CN(CCNC(=O)CCCCCNC(=O)CCc3ccccc3)C1[C@H]2C (single isomer, unassigned)

Compound: C=C(C)Cn1c(SCC(=O)c2ccccc2)nc2sc3c(c2c1=O)CCCC3
- inhibition [1]: 64.8%
- EC50 ([2]; read-out: EC50): 5.7 µM
- CC50 at 48 h [3]: > 50 µM
- inhibition [4]: 60.4%
- IC50 [10]: 0.965 µM

Compound: O=c1c2ccsc2nc(SCC(O)c2ccccc2)n1C1CC1 (configuration not stated)
- inhibition [1]: 3.2%
- CC50 at 48 h [3]: > 50 µM
- inhibition [4]: -4.8%
- IC50 [10]: 6.07 µM
- inhibition [5]: inactive
- inhibition [6]: inactive

Compound: C=C(C)Cn1c(SCC(=O)N2CCCCC2C)nc2sc3c(c2c1=O)CCCC3 (configuration not stated)
- inhibition [1]: 35%
- EC50 ([2]; read-out: EC50): 2.32 µM
- CC50 at 48 h [3]: 16.7 µM
- inhibition [4]: 49.2%

Compound: C=C(C)Cn1c(SCC(=O)c2cccs2)nc2sc3ccccc3c2c1=O
- EC50 ([2]; read-out: EC50): > 20 µM
- CC50 at 48 h [3]: > 50 µM

Compound: CC(O)(CSc1nc2sccc2c(=O)n1C1CC1)c1ccccc1 (configuration not stated)
- EC50 ([2]; read-out: EC50): 0.948 µM
- CC50 at 48 h [3]: > 50 µM

Compound: C=C(C)Cn1c(SCC(=O)N2CCCCC2)nc2sc3c(c2c1=O)CCCC3
- EC50 ([2]; read-out: EC50): 10.7 µM
- CC50 at 48 h [3]: 24.6 µM

Compound: CN(C)c1ccccc1CN1CCCN(Cc2ccccc2N(C)C)C1c1ccncc1
- inhibition [1]: 43.8%
- EC50 [12]: 5 µM
- EC50 ([2]; read-out: EC50): 9.27 µM
- CC50 at 48 h [3]: > 50 µM
- inhibition [4]: 52.8%

Compound: C=C(C)Cn1c(SCC(=O)c2nccs2)nc2sc3c(c2c1=O)CCCC3
- EC50 ([2]; read-out: EC50): > 20 µM
- CC50 at 48 h [3]: > 50 µM

Compound: C=CCn1c(SCC(=O)c2cccs2)nc2sc3c(c2c1=O)CCCC3
- EC50 ([2]; read-out: EC50): 2.36 µM
- CC50 at 48 h [3]: > 50 µM

Compound: C=C(C)Cn1c(SCC(=O)c2cccs2)nc2sc3c(c2c1=O)CCCC3
- inhibition [1]: 46.5%
- EC50 ([2]; read-out: EC50): 1.34 µM
- EC50 ([2]; read-out: pEC50 (converted)): < 1 µM
- CC50 at 48 h [3]: > 50 µM
- inhibition [4]: 32.2%
- IC50 [10]: 0.38 µM
- inhibition [5]: inactive
- inhibition [6]: inactive

Compound: C=C(C)Cn1c(SCC(=O)c2cccnc2)nc2sc3c(c2c1=O)CCCC3
- EC50 ([2]; read-out: EC50): 11.1 µM
- CC50 at 48 h [3]: 35.4 µM
